Biological target: MBL (Homo sapiens, UniProt P11226)
Assay: Affinity of monomeric saccharides for MBL
Format: binding

MBL, sequence (P11226 21-248): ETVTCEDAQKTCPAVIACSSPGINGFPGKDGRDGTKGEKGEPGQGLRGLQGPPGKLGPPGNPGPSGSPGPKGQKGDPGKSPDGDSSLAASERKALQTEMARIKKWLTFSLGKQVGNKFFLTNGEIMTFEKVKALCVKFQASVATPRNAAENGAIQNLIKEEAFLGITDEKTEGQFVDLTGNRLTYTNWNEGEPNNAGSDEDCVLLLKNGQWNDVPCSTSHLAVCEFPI

Structure (SMILES) | affinity for MBL
O=C[C@H](O)[C@@H](O)[C@@H](O)[C@H](O)CO [galactose] | very low affinity
CC(=O)N[C@H]1C(O)O[C@H](CO)[C@@H](O)[C@@H]1O (some centres unmarked) [N-acetyl-glucosamine] | high affinity

Reference: patent US8478375B2, “Sensor for detection of carbohydrate” (Medtronic Minimed, Inc., priority 2004, dated 2013)
